Results published in ChEMBL document CHEMBL5346971, “Discovery of the First Irreversible HDAC6 Isoform Selective Inhibitor with Potent Anti-Multiple Myeloma Activity” (J Med Chem, 2023).
The source made the active and inactive calls. The rule behind the calls is not given here.

How the values were obtained:
[1] = Effect on HDAC6 protein expression in human A549 cells assessed as change in HDAC6 protein expression at 0.4 uM incubated for 5 hrs followed by drug wash-out for 24 hrs by western blot analysis relative to control; type: functional
RPMI-8226 = assay: Induction of apoptosis in human RPMI-8226 cells assessed as proportion of viable cells at 0.5 uM incubated for 24 hrs by AnnexinV-FITC/PI staining based flow cytometry (reference value: 84.71%); type: functional, cell-based
Histone deacetylase 11 = molecular target: T1, Histone deacetylase 11 (Homo sapiens, UniProt Q96DB2); assay: Inhibition of human full length recombinant HDAC11 (1 to 347 residues) expressed in Sf9 cells using acetyl-ETDKmyr-AMC as substrate preincubated with enzyme for 1 hr followed by substrate addition and measured after 30 mins by fluorescence based analysis
T1 sequence (Q96DB2 whole entry): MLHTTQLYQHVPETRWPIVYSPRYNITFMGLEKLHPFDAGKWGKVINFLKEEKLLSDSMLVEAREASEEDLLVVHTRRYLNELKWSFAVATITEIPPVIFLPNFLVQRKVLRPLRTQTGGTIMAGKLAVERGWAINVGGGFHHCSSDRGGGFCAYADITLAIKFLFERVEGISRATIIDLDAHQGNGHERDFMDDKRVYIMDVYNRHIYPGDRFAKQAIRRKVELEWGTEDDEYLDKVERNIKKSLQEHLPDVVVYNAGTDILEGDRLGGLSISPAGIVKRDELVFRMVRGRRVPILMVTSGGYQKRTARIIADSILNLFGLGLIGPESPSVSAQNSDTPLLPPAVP

IC50 (Histone deacetylase 11): 5.3 µM
SMILES: O=C(NO)c1ccc(COc2no[n+]([O-])c2S(=O)(=O)c2ccccc2)cc1
fold change (FC) [1]: 1.3
Activity (RPMI-8226): Active
